SMILES strings stand for the structures.

In test [1] the target is D(2) dopamine receptor (Canis lupus familiaris, UniProt Q9GJU1).
For test [2], the target named is T1, 5-hydroxytryptamine receptor 2C (Canis lupus familiaris, UniProt Q60F97).
T1 sequence (Q60F97 whole entry): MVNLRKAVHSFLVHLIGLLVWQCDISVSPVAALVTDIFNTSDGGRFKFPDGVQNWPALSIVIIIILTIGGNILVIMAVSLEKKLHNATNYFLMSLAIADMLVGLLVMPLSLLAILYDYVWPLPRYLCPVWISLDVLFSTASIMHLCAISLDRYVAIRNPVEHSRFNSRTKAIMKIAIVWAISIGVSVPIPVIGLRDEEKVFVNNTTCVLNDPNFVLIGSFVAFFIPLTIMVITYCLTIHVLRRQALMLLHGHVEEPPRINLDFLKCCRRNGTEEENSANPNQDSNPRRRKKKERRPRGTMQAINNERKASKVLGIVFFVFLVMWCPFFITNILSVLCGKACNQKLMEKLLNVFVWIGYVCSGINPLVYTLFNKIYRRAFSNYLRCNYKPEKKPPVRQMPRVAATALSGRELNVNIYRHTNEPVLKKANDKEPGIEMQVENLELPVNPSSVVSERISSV

Sequence of D(2) dopamine receptor (Q9GJU1 whole entry): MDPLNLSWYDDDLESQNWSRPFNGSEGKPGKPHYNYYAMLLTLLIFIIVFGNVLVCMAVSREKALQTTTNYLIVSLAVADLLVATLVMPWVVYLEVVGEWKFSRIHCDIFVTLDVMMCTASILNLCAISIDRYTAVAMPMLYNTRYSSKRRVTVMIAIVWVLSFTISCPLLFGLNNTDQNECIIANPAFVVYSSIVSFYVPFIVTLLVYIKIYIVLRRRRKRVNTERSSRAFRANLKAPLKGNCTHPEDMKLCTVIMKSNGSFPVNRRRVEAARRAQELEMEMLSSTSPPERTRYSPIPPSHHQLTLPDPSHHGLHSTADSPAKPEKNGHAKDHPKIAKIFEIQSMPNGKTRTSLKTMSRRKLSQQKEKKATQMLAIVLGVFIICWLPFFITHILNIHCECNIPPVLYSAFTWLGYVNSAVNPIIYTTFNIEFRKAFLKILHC

On to `NCCc1ccc(O)c(O)c1`, for which the Ki in test [1] is > 10000 nM.

`O=C(c1ccc(F)cc1)C1CCN(CCn2c(=O)[nH]c3ccccc3c2=O)CC1` [3-(2-{4-[(4-fluorophenyl)carbonyl]piperidin-1-yl}ethyl)-1,2,3,4-tetrahydroquinazoline-2,4-dione]: the inhibitory constant (Ki) in test [2] came to 13 nM; in test [1], 166 nM.

As for `OCCN1CCN(CC/C=C2/c3ccccc3Sc3ccc(C(F)(F)F)cc32)CC1` [(cis) 2-{4-[3-(2-Trifluoromethyl-thioxanthen-9-ylidene)-propyl]-piperazin-1-yl}-ethanol(Flupentixol)], the Ki in test [1] came out at 30 nM. In other words, the double-digit nanomolar range.

`CN1CCN2c3ccccc3Cc3ccccc3[C@H]2C1` [MIANSERIN (+)]: the inhibitory constant (Ki) worked out at 2.8 nM in test [2] and 161 nM in test [1].

For the compound `NCCc1c[nH]c2ccc(O)cc12` [[3H]-5-HT], the inhibitory constant (Ki) in test [1] is > 10000 nM.

What is called Ki is a dissociation constant, usually derived from enzyme kinetics or from competition with a known ligand. The low end stands for a stronger hold on the target, the high end for a looser hold on the target.

Values taken from BindingDB's records for PubMed 2971798 (University of Pennsylvania, 1988).
